Activity calls are given as the source filed them. How the calls were made is not given here.
Test system: SW480 viability, CellTiter-Glo luminescence
Experiment: 50% inhibitory concentration in SW480 colon cancer line, survival by CellTiter-Glo luminescence, dose-dependent response (AID 1117338)

Row | SMILES | IC50
1 | Cc1ccc([N+](=O)[O-])[c]2c1[O][Hg]2 | 1130 nM
2 | O=C1[O][Bi][O]c2ccccc21 | > 20000 nM (inactive)
3 | O=C(O)C1(C(=O)O)CCC1.[NH2-].[NH2-].[Pt+2] | > 20000 nM (inactive)
4 | Cn1cnc([N+](=O)[O-])c1Sc1ncnc2nc[nH]c12 | 9440 nM (inactive)
5 | CC(=O)[O][Hg][c]1ccccc1 | 543 nM
6 | CCCCCCCCCCCCCC[N+](C)(C)C | 933 nM
7 | OCCN1CCN(CC/C=C2/c3ccccc3Sc3ccc(C(F)(F)F)cc32)CC1 | 3930 nM
8 | O=Cc1ccc(O)c(O)c1O | 11300 nM (inactive)
